{"source": "paper PMC8155022", "about": "(Scientific Reports, 2021)", "key": {"PKBα(h)": {"target": "T1, PKBα(h) (Homo sapiens, UniProt P31749)", "T1 construct": "purchased Cerep (receptors, ion channels, transporters); Eurofins Panlabs (kinases)", "T1 sequence (P31749 whole entry)": "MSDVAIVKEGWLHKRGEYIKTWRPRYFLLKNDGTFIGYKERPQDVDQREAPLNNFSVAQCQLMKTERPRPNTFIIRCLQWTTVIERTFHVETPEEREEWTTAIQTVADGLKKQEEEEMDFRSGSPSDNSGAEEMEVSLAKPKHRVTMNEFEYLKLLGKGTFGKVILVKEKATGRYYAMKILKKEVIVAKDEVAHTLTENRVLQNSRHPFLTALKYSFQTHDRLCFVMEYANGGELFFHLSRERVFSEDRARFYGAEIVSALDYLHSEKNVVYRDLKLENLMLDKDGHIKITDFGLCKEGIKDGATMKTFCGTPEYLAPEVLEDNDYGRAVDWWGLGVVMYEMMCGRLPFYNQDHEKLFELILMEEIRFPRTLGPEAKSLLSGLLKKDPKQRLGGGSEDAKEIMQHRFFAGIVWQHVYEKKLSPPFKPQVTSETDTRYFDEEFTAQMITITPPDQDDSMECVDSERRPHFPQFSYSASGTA", "assay": "Kinase panel", "assay_type": "biochemical"}, "Beagle dogs": {"test_system": "Beagle dogs", "assay": "1-month GLP toxicity study in dogs", "assay_type": "in vivo", "settings": "dog", "procedure": "(§1) The type of study plan was reviewed and agreed by the Laboratory Animal Welfare Officer and the Animal Ethical Committee (officially known as Dierexperimentencommissie (DEC) Charles River Den Bosch), as required by the Dutch Act on Animal Experimentation (February 1997). Both rat and dog studies were performed in AALAC accredited Charles River Laboratories in the Netherlands. Studies in rats were conducted with 0, 25, 100, and 400 mg/kg per day (n = 10/sex/group) for 1 month. An additional 5 animals/sex in vehicle and high dose were allowed to continue for a 1-month treatment-free recovery period. Studies in dogs were conducted with 0, 3, 10, and 30 mg/kg per day (n = 4/sex/group) for 1 month. A treatment-free recovery period of 1 month (additional 2 dogs/sex/group) was included for both vehicle controls and high dose groups. […] Rats and dogs were examined for mortality, clinical signs, ophthalmoscopic changes, body weight, food consumption, hematology, clinical chemistry, anatomic pathology, and toxicokinetics. In addition, dogs were examined for electrocardiographic changes. Rats and dogs were also assessed for reversal of any effects following a 1-month recovery period. These studies were conducted in compliance with good laboratory practice (GLP) regulations."}, "[1]": {"assay": "1-month GLP toxicity study in dogs", "assay_type": "in vivo", "settings": "Beagle, in vivo, dog; for AUC(0-t) / Cmax: po, 3 mg/kg; for AUC(0-t): read-out: AUC0-24 h at NOAEL; for Cmax: read-out: Cmax at NOAEL", "procedure": "as §1"}, "M3": {"target": "M3 (Homo sapiens, UniProt P20309)", "sequence (P20309 whole entry)": "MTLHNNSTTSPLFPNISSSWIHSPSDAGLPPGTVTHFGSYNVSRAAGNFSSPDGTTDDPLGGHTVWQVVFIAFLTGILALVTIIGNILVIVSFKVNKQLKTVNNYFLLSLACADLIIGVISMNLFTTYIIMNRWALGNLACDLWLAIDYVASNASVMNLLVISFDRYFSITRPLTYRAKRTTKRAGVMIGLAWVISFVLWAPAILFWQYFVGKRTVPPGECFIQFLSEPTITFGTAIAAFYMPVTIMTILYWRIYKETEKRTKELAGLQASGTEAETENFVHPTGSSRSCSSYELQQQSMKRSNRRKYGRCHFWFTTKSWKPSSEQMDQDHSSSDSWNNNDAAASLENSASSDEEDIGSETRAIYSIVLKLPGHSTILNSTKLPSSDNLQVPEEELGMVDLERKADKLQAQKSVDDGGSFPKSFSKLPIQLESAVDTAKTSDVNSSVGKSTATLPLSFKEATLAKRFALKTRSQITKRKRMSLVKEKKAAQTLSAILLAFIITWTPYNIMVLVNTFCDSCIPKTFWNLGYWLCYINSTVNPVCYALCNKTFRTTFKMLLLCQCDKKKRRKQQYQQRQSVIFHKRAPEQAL", "assay": "GPCR panel, cAMP or calcium FLIPR assays", "assay_type": "cell-based"}, "ALK4(h)": {"target": "T2, ALK4(h) (Homo sapiens, UniProt P36896)", "T2 construct": "purchased Cerep (receptors, ion channels, transporters); Eurofins Panlabs (kinases)", "T2 sequence (P36896 24-505)": "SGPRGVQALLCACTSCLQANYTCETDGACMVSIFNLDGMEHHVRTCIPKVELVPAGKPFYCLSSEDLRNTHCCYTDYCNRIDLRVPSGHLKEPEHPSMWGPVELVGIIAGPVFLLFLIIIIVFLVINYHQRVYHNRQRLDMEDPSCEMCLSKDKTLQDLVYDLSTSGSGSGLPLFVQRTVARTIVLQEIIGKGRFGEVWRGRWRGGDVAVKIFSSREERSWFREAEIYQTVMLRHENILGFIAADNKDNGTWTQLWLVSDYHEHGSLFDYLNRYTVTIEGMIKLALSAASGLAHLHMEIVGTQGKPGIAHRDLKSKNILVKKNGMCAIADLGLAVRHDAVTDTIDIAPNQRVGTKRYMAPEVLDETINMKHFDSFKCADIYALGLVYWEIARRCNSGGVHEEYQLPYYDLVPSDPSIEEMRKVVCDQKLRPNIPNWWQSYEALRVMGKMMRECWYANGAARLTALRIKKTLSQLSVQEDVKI", "assay": "Kinase panel", "assay_type": "biochemical"}, "Ret(h)": {"target": "T3, Ret(h) (Homo sapiens, UniProt P07949)", "T3 construct": "purchased Cerep (receptors, ion channels, transporters); Eurofins Panlabs (kinases)", "T3 sequence (P07949 29-1114)": "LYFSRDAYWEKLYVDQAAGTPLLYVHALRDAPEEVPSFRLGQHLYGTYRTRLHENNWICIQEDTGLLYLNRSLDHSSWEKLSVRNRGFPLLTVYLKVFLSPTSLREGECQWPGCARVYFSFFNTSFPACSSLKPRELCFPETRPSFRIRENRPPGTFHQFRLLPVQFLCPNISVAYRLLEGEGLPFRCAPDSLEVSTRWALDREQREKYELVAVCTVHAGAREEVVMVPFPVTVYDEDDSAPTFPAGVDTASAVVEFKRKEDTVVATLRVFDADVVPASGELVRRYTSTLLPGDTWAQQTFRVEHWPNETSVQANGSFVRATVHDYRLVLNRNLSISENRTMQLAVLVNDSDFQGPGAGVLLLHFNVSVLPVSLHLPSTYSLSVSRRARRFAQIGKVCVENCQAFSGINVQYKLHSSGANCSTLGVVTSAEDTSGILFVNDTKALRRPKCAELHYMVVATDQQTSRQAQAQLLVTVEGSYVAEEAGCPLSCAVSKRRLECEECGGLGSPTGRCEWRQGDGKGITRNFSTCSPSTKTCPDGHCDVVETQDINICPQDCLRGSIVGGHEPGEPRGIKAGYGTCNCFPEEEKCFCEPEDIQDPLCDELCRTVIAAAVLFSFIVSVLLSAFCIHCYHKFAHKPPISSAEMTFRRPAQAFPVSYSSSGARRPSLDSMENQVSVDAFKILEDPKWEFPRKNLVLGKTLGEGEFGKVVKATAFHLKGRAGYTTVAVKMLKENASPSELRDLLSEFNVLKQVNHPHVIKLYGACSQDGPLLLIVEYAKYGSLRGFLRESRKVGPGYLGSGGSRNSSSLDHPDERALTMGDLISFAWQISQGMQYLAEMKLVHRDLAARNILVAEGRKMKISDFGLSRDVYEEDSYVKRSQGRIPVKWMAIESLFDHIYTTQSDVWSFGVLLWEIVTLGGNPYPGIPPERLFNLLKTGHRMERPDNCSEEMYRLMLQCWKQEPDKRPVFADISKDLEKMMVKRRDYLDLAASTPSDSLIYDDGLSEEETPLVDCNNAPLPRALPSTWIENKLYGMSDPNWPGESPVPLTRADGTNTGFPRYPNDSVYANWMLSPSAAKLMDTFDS", "assay": "Kinase panel", "assay_type": "biochemical"}, "rabbit fetal development": {"test_system": "rabbit fetal development", "assay": "rabbit embryo-fetal study", "assay_type": "in vivo", "procedure": "Therefore, SAD was dosed only up to 200 mg."}, "5HT2A": {"target": "5HT2A (Homo sapiens, UniProt P28223)", "sequence (P28223 whole entry, species assumed)": "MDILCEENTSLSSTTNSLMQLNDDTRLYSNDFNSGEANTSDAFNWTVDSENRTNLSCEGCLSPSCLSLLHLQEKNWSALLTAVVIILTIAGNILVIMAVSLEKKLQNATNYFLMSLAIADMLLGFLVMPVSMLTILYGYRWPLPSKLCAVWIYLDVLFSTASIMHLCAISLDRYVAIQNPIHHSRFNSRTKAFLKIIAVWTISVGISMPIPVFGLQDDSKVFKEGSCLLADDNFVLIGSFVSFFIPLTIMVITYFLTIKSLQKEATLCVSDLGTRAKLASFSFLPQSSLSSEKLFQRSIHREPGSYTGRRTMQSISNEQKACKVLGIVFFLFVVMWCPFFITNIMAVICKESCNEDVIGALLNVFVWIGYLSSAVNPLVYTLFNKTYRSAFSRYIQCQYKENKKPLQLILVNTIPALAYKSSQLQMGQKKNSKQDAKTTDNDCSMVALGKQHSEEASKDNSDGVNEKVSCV", "assay": "GPCR panel, cAMP or calcium FLIPR assays", "assay_type": "cell-based"}, "Na+ channel (site 2)": {"test_system": "Na+ channel (site 2)", "assay": "Cerep panel", "assay_type": "binding"}, "5HT2B": {"target": "5HT2B (Homo sapiens, UniProt P41595)", "sequence (P41595 whole entry, species assumed)": "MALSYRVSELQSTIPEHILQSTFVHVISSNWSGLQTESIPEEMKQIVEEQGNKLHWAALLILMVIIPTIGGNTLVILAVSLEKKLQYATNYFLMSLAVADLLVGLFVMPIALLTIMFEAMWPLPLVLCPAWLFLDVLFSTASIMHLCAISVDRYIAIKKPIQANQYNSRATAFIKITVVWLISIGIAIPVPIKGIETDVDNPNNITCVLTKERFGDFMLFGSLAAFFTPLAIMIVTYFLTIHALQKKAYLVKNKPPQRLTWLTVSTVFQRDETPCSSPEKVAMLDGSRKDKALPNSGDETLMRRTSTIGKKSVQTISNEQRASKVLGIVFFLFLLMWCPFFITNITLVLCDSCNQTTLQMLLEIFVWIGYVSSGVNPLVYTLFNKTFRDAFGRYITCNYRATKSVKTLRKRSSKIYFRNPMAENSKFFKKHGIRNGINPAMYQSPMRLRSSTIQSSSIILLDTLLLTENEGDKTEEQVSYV", "assay": "GPCR panel, cAMP or calcium FLIPR assays", "assay_type": "cell-based"}, "MT1 (h)": {"target": "T4, MT1 (h) (Homo sapiens, UniProt P48039)", "T4 construct": "purchased Cerep (receptors, ion channels, transporters); Eurofins Panlabs (kinases)", "T4 sequence (P48039 whole entry)": "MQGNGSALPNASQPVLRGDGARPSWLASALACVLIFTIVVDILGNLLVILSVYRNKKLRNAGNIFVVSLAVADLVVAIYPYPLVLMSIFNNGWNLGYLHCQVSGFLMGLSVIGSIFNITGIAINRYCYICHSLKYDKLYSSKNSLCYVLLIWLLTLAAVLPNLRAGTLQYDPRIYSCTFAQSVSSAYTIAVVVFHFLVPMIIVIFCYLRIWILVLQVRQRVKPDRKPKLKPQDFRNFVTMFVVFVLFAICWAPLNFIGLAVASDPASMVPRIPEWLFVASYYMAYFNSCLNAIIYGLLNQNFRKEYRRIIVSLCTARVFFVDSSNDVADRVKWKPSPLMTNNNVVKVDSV", "assay": "Cerep panel", "assay_type": "binding"}, "5HT1B": {"target": "5HT1B (Homo sapiens, UniProt P28222)", "sequence (P28222 whole entry, species assumed)": "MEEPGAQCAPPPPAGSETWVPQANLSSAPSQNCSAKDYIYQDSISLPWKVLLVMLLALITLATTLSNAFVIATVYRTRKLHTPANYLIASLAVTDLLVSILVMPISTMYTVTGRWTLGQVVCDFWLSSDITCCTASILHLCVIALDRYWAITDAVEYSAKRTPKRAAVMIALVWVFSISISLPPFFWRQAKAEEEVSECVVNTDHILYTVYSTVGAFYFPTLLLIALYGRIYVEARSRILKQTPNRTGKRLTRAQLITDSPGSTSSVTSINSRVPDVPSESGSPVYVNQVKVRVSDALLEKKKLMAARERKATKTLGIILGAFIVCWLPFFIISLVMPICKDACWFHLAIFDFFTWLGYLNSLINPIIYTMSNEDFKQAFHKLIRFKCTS", "assay": "GPCR panel, cAMP or calcium FLIPR assays", "assay_type": "cell-based"}}, "note": "Where two headings read alike, the source gives them in different places."}
{"smiles": "CC1CCCN1C(=O)c1nc(C(=O)NCC(C)(C)O)sc1-c1ccc(C(O)(C(F)(F)F)C(F)(F)F)c(Cl)c1Cl", "note": "(stereo not drawn) [JNJ-61803534]", "values": [{"measurement": "activity at 1 µM", "setting": "PKBα(h)", "value": 97, "unit": "%"}, {"measurement": "activity at 10 µM", "setting": "PKBα(h)", "value": 95, "unit": "%"}, {"measurement": "tolerability", "setting": "Beagle dogs; 10 mg/kg/day, weight loss and reduced food consumption in the fourth week, trend for increased ALP", "value": "clinically well tolerated during the first 3 weeks of treatment"}, {"measurement": "tolerability", "setting": "Beagle dogs; 30 mg/kg/day, intestinal mucosal hemorrhages and slight hepatocellular lipid vacuolation in some animals", "value": "exceeded the maximum tolerated dose"}, {"measurement": "lymphocyte apoptosis in thymus", "setting": "Beagle dogs; recovered after 1-month recovery period", "value": "dose-dependent lymphocyte apoptosis in thymus was observed"}, {"measurement": "AUC(0-t)", "setting": "[1]; female", "value": 142, "unit": "µg·h/mL"}, {"measurement": "Cmax", "setting": "[1]; female", "value": 7500, "unit": "ng/mL"}, {"measurement": "AUC(0-t)", "setting": "[1]; male", "value": 118, "unit": "µg·h/mL"}, {"measurement": "Cmax", "setting": "[1]; male", "value": 7250, "unit": "ng/mL"}, {"measurement": "NOAEL at 1 month", "setting": "[1]; both sexes, 1 month oral", "value": 3, "unit": "mg/kg"}, {"measurement": "EC50", "setting": "M3; agonist", "value": "> 10", "unit": "µM"}, {"measurement": "IC50", "setting": "M3; antagonist", "value": "> 10", "unit": "µM"}, {"measurement": "activity at 1 µM", "setting": "ALK4(h)", "value": 104, "unit": "%"}, {"measurement": "activity at 10 µM", "setting": "ALK4(h)", "value": 108, "unit": "%"}, {"measurement": "activity at 1 µM", "setting": "Ret(h)", "value": 107, "unit": "%"}, {"measurement": "activity at 10 µM", "setting": "Ret(h)", "value": 104, "unit": "%"}, {"measurement": "effect on fetal development", "setting": "rabbit fetal development", "value": "fetal development was impacted"}, {"measurement": "EC50", "setting": "5HT2A; agonist", "value": "> 10", "unit": "µM"}, {"measurement": "IC50", "setting": "5HT2A; antagonist", "value": "> 10", "unit": "µM"}, {"measurement": "% Inhibition at 1 µM", "setting": "Na+ channel (site 2); 1 µM", "value": 15, "unit": "%"}, {"measurement": "% Inhibition at 10 µM", "setting": "Na+ channel (site 2); 10 µM", "value": 46, "unit": "%"}, {"measurement": "EC50", "setting": "5HT2B; agonist", "value": "> 10", "unit": "µM"}, {"measurement": "IC50", "setting": "5HT2B; antagonist", "value": "> 10", "unit": "µM"}, {"measurement": "inhibition at 1 µM", "setting": "MT1 (h)", "value": "< 10", "unit": "%"}, {"measurement": "inhibition at 10 µM", "setting": "MT1 (h)", "value": 20.4, "unit": "%"}, {"measurement": "EC50", "setting": "5HT1B; agonist", "value": "> 12.5", "unit": "µM"}, {"measurement": "IC50", "setting": "5HT1B; antagonist", "value": "> 12.5", "unit": "µM"}]}
